This is an account of results in patent US20170067871A1, “HIGH-THROUGHPUT CELLULAR ANALYSIS USING MICROBUBBLE ARRAYS” (University of Rochester, priority 2015, published 2017).

Each structure is given as a SMILES string. “Also recorded” adds a separate entry of the source.

For assay [1], the system named is cutaneous squamous cell carcinoma cell colonies (SCC cells). The assay is described as follows: Drug resistance screen of squamous carcinoma cell colonies in microbubble well arrays, CalceinAM/PI live/dead staining. The format is cell-based. The procedure:
To enrich for the sphere cells, established colonies were cultured in the presence of a chemotherapeutic agent (e.g. Cisplatin). Traditional chemotherapeutic agents work by killing rapidly dividing cells, one of the main properties of most cancer cells. This means that chemotherapy also harms cells that divide rapidly under normal circumstances. Most chemotherapeutic drugs work by impairing mitosis (cell division), effectively targeting fast-dividing cells and inducing apoptosis. After Day 7 the cell culture media was changed and 10 uM or 10 nM cisplatin and incubated for 2 to 7 days, respectively. After which the chips were transferred into fresh media prior to a live/dead staining with CalceinAM/PI followed by stem cell marker analysis.

The subject of assay [2] is multi-cellular tumor spheroids. Particulars: microbubble well array based perfusion system; cited from earlier work.

As for `N.N.[Cl][Pt][Cl]` [Cisplatin], the “surviving sphere cells as share of initial cells seeded in the MB well array” value in assay [1] (10 μM Cisplatin for 48 hr, CalceinAM (live) / propidium iodide (dead) staining, colonies from one or two cells per MB well) is recorded as about 5%. Moreover, the “drug resistance of spheroid versus spread cell morphology (live/dead staining)” value in assay [1] (established colonies, 10 uM or 10 nM cisplatin for 2 to 7 days, respectively, CalceinAM/PI) is given as “the spheroid cells have greater resistance in response to chemo drug than the spread cell; also recorded: sphere cells exhibit drug resistance”. In the case of `COc1cccc2c1C(=O)c1c(O)c3c(c(O)c1C2=O)C[C@@](O)(C(=O)CO)C[C@@H]3O[C@H]1C[C@H](N)[C@H](O)[C@H](C)O1` [doxorubicin], in assay [2], the “resistance of spheroid cells versus adherent cells to treatment” value is given as “spheroid cells are more resistant to doxorubicin treatment than adherent cells”.
